Substitutions are numbered along the chain they refer to. Where two headings read alike, the source gives them in different places.
What was measured:
[1] = biological target: T1, N1L (Vaccinia virus, UniProt P17361); type: binding
T1 sequence (P17361 1-117): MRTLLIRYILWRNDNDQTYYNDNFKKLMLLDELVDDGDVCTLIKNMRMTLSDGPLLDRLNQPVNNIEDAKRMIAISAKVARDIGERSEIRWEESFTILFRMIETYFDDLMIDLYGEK

[2] = biological target: Bcl-2 (Homo sapiens, UniProt P10415); type: binding; conditions: FPA, incomplete titration curves
[3] = biological target: Bcl-XL (Homo sapiens, UniProt Q07817); type: binding; conditions: FPA, incomplete titration curves
[4] = biological target: T2, N1L I6K (Vaccinia virus, UniProt P17361, I6K); type: binding
T2 sequence (P17361 1-117 I6K): T1 sequence (P17361 1-117) with I6K

[5] = biological target: T1, N1L; type: binding; remark: listed apart in the source
[6] = test system: CV1 and HT1080 cells
[7] = test system: VacV-GFP; type: cell-based, vaccinia virus
[8] = compound concentrations above 100 μM

Sequence of Bcl-XL (Q07817 whole entry): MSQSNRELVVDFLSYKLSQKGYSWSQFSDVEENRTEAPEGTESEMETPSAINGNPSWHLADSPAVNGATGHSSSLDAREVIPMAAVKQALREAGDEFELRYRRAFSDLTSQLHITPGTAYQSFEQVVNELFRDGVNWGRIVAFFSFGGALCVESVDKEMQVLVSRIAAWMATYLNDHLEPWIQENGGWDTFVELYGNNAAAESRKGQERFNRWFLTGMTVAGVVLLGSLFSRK
Sequence of Bcl-2 (P10415 whole entry): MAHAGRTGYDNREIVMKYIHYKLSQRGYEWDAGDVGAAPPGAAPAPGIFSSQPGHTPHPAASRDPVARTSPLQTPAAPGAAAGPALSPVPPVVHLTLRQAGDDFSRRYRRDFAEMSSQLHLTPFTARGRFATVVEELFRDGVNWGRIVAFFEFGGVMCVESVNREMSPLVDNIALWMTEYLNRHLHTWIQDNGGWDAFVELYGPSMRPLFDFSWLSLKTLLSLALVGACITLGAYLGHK

Compound | ΔH of N1L unfolding [1] [kcal/mol] | binding to Bcl-2 (in words) [2] | binding to Bcl-XL (in words) [3] | non-specific cytotoxicity (in words) [6, 8] | other results
Oc1cc(Cc2ccccc2)c(Cc2ccccc2)cc1O [Ligand 12] | 11.2 | – | – | – | –
Oc1cc(C(c2ccccc2)c2ccccc2)c2ccccc2c1O [Ligand 7] | 12.3 | poor ligand binding | poor ligand binding | – | –
COc1cc(C(c2ccccc2)c2ccccc2)c2ccccc2c1O [Ligand 6] | 8.7 | – | – | – | –
Oc1ccc(/C=C/c2cc(O)cc(O)c2)cc1 [Ligand 4, trans-Resveratrol] | 10.3 | – | – | – | Tm of N1L I6K [4]: 61.1 °C; ΔH of N1L I6K unfolding [4]: 15.9 kcal/mol; N1L inhibition (in words) [5]: moderate N1L inhibitor
COc1cc(-c2ccc3cc(OC)c(OC)c(OC)c3c2)cc(OC)c1OC [Ligand 11] | 20.3 | poor ligand binding | poor ligand binding | no significant non-specific cytotoxicity | effect on N1L enthalpy of unfolding (in words) [1]: increase of enthalpy of unfolding; effect on N1L melting temperature (in words) [1]: slight decrease of melting temperature
Oc1ccc(/C=N/c2ccccc2/N=C/c2ccc(O)c(O)c2)cc1O [Ligand 9] | 17.8 | – | – | no significant non-specific cytotoxicity | –
COc1ccc2ccccc2c1-c1c(O)ccc2ccccc12 [Ligand 8] | – | cross-reactivity | cross-reactivity | – | antiviral activity (in words) [7]: poor antiviral; non-specific cytotoxicity (in words) ([6]; absence of VacV-GFP, up to 150 μM): cytotoxicity in uninfected cells
COc1ccc(CCc2cc(OC)c(O)c(OC)c2)cc1 [Ligand 3] | 11.0 | – | – | – | –
COc1ccc(C(C)c2cc(OC)c(OC)c(OC)c2)cc1 (centres unmarked) [Ligand 2] | – | – | – | no significant non-specific cytotoxicity | –

From paper PMC2874095 (Journal of medicinal chemistry, 2010)
